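GI50 = concentration required for 50% inhibition of growth. The concentration for full growth arrest is given as TGI.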
Legend:
Experiment in all cases: NCI tumour cell line growth inhibition, 384-well format
COLO 205 colon = system: COLO 205 colon
NCI-H460 NSCLC = system: NCI-H460 NSCLC
NCI-H226 lung = system: NCI-H226 lung
MALME-3M melanoma = system: MALME-3M melanoma
LOX IMVI melanoma = system: LOX IMVI melanoma
M14 melanoma = system: M14 melanoma
HCT-15 colon = system: HCT-15 colon
CAKI-1 renal = system: CAKI-1 renal
NCI-H522 lung = system: NCI-H522 lung
MDA-MB-468 breast = system: MDA-MB-468 breast
MCF7 breast = system: MCF7 breast
MOLT-4 leukemia = system: MOLT-4 leukemia
HL-60(TB) leukemia = system: HL-60(TB) leukemia
MDA-MB-231 breast = system: MDA-MB-231 breast
SR leukemia = system: SR leukemia
SW-620 colon = system: SW-620 colon
HOP-62 NSCLC = system: HOP-62 NSCLC
UACC-62 melanoma = system: UACC-62 melanoma
SF-539 CNS = system: SF-539 CNS
IGROV1 ovarian = system: IGROV1 ovarian
OVCAR-3 ovarian = system: OVCAR-3 ovarian
SF-295 CNS = system: SF-295 CNS
HOP-92 NSCLC = system: HOP-92 NSCLC
KM12 colon = system: KM12 colon
SK-MEL-2 melanoma = system: SK-MEL-2 melanoma
K-562 leukemia = system: K-562 leukemia
HCT-116 colon = system: HCT-116 colon
SN12C renal = system: SN12C renal

Q: Which results are given for `CS[C@@]1(C(=O)Nc2ccc3[nH]nc(-c4ccc(OC(C)C)nc4)c3c2)CCN(CC(=O)N2CC=C(c3ccc(-c4ncn(C)n4)cc3)CC2)C1`?
A: GI50 (COLO 205 colon): 20 nM; TGI (COLO 205 colon): 194 nM; GI50 (NCI-H460 NSCLC): 884 nM; TGI (NCI-H460 NSCLC): > 100000 nM; GI50 (NCI-H226 lung): 595 nM; TGI (NCI-H226 lung): 21600 nM; TGI (MALME-3M melanoma): 22.1 nM; GI50 (LOX IMVI melanoma): 90.4 nM; TGI (LOX IMVI melanoma): 267 nM; GI50 (M14 melanoma): 12.5 nM; TGI (M14 melanoma): 109 nM; GI50 (HCT-15 colon): 2820 nM; TGI (HCT-15 colon): > 100000 nM; GI50 (CAKI-1 renal): 273 nM; TGI (CAKI-1 renal): > 100000 nM; GI50 (NCI-H522 lung): 7970 nM; TGI (NCI-H522 lung): > 100000 nM; GI50 (MDA-MB-468 breast): 907 nM; TGI (MDA-MB-468 breast): 7330 nM; GI50 (MCF7 breast): > 100000 nM; TGI (MCF7 breast): > 100000 nM; GI50 (MOLT-4 leukemia): 2560 nM; TGI (MOLT-4 leukemia): 8650 nM; GI50 (HL-60(TB) leukemia): 43.7 nM; TGI (HL-60(TB) leukemia): 1350 nM; GI50 (MDA-MB-231 breast): 373 nM; TGI (MDA-MB-231 breast): 34300 nM; GI50 (SR leukemia): 375 nM; TGI (SR leukemia): 4000 nM; GI50 (SW-620 colon): 112 nM; TGI (SW-620 colon): > 100000 nM; GI50 (HOP-62 NSCLC): 476 nM; TGI (HOP-62 NSCLC): > 100000 nM; GI50 (UACC-62 melanoma): 11 nM; TGI (UACC-62 melanoma): 215 nM; GI50 (SF-539 CNS): 1360 nM; TGI (SF-539 CNS): 47800 nM; GI50 (IGROV1 ovarian): 514 nM; TGI (IGROV1 ovarian): > 100000 nM; GI50 (OVCAR-3 ovarian): 5370 nM; TGI (OVCAR-3 ovarian): > 100000 nM; GI50 (SF-295 CNS): 12800 nM; TGI (SF-295 CNS): > 100000 nM; GI50 (HOP-92 NSCLC): 189 nM; TGI (HOP-92 NSCLC): 631 nM; GI50 (KM12 colon): 297 nM; TGI (KM12 colon): > 100000 nM; GI50 (SK-MEL-2 melanoma): 38.6 nM; TGI (SK-MEL-2 melanoma): 207 nM; GI50 (K-562 leukemia): 819 nM; TGI (K-562 leukemia): > 100000 nM; GI50 (HCT-116 colon): 122 nM; TGI (HCT-116 colon): 2390 nM; GI50 (SN12C renal): 3370 nM; TGI (SN12C renal): > 100000 nM
